Format in all cases: cell-based
One experiment deals with HPAF-II. Briefly: WST-8 cell viability assay. How it is done: (§1) Day 1: cells were harvested cells from flask (4 mL accutase for T175 for 3-5 minutes), and spin down for 5 mins at 1200 rpm. The supernatant was poured off, and the pellet gently resuspended in 1 mL media. Countess counts were performed, and the cells were diluted in media (10% FBS). With multi-channel pipette, 2500 cells were seeded in 100 uL of media (10% FBS) in each well of 96 well plate. The cells were let to adhere and grow for 24 hours. Day 2: serial drug dilutions of MTAs+/−EMs at 5× of concentrations (as done above) were performed in media (10% FBS). 20 uL of media form each well of the 96 well plate (80 uL media left in wells) was removed, and 20 uL of appropriate 5× drug dilutions was added to each respective well (for a 1× conc). The cells were incubated with drug for 72 hours in 37C incubator. Day 5: 10 uL of WST-8 reagent was added to each well of the 96 well plate and mixed gently. the plates were incubated up to 4 hours at 37C in dark, and absorbance readings were taken at […] and 600 nm wavelengths at 1, 2, 3 and 4h, until control absorbance levels were 1.5-2.0).
(§2) WST-8 Assay: MTA and EM effects on cell viability were measured by Cell Counting Kit8 (WST-8) colorimetric assay using water-soluble tetrazolium salt WST-8 reagent (Vita Scientific Cat. #DBOC00128). For the assay, cells were seeded in 96-well plates at 2,500 cells per well, in 100 μL of 10% FBS-containing media. After 24 hours, a 1 nM to 10 μM range of MTA and/or 1 ng/mL to 1 mg/mL range of EM doses was added and incubated for 72 hours. After treatment, a 10% volume of WST-8 reagent was added to each well and cells were incubated at 37° C. for up to 4 hours. Solution absorbance was measured at wavelengths of 450 nm and 600 nm at 1-, 2-, 3-, and 4-hour's incubation. Percentage viability of drug-treated cells was calculated relative to untreated control cells. Results were confirmed by three independent experiments.
(§3) For studying the effects of various molecularly targeted agents (MTAs) and enhancer molecules (EMs) alone as well as in combination: HCC827, PC-9, A427, Calu-6, H2228, H358, H1299, H460, H292, H1838, H2170, and H226 (non-small cell lung cancer; NSCLC); and SK-MES-1 […], CAL27, OE21, KYSE-70, A-253, BICR-16, PE/CA-PJ15 and Ca9-22 (head and neck squamous cell carcinoma; HNSCC); SK-MEL-2, SK-MEL-28, RPMI-7951 and A7 (melanoma); HTB-38 and HCT116 (colorectal cancer; CRC); BxPC-3 and HPAF-II (pancreatic cancer); HEPG2 (hepatocellular carcinoma; HCC); A498 (renal cell carcinoma; RCC) cells were used. Other cell lines, including those from other cancer types, or cells collected from more complex sample types such as xenografts and clinical samples can be used. Ultimately, these combinations can be utilized in various clinical and pre-clinical samples and studies. Using the WST-8 cell viability assay, a MTA+EM-induced anti-cancer/anti-growth activity in multiple cell lines was discovered (FIGS. 8-15). Other viability assays, for example, MTT, HoPI staining, dye exclusion (e.g. trypan blue), can be used readily. […] The cut-off value for classifying a “strong anti-cancer/anti-growth enhancement” was a response resulting in >70% reduction in cell survival compared to untreated control cells (100%), while showing greater reduction compared to both MTA and EM alone.
On the technique in general: Tetrazolium dyes change colour on reduction, which living cells bring about.

For another experiment, the system named is BICR-16. Kind of experiment: WST-8 cell viability assay. As to conditions: in combination with GSK-458, 72 hours. How it is done:
as §1, §2, §3

The next experiment relates to HTB-38. Briefly: WST-8 cell viability assay. How it is done:
as §1, §2, §3

The test system of a further experiment is Calu-6. Kind of experiment: WST-8 cell viability assay. How it is done: as §1, §2, §3
For another experiment, the system named is CAL27. Briefly: WST-8 cell viability assay. As to conditions: in combination with GSK-795, 72 hours. Here is the method: as §1, §2, §3
A further experiment concerns OE21. Briefly: WST-8 cell viability assay. As to conditions: in combination with trametinib, 72 hours. How it is done: as §1, §2, §3
In another experiment the test system is BxPC-3. Briefly: WST-8 cell viability assay. The following applies: in combination with GSK-458, 72 hours. How it is done:
as §1, §2, §3

The next experiment relates to CAL27 cells. Briefly: Western blot of protein biomarkers. As to conditions: GSK-795 (10 nM)+IFN-γ (50 ng/mL). How it is done:
(§4) MTA and EM effects on protein biomarker expression were measured by western blotting. For the assay cell lines (Ca9-22, PE/CA-PJ15, HTB-38, HPAF-II, CAL27, BICR-16, A-253, Calu-6, PC-9, H1838, RPMI-7951 and A7) were cultured and treated with doses of MTAs alone, EMs alone and in combination and then lysed for protein analysis. This method can readily be conducted under adherent or suspension conditions, manually or on automated instruments, such as SnapPath. A total of 0.3×10^6 cells per well were seeded in 6 well plates with 10% FBS-containing media and incubated for 24 hours. Cells were then treated with MTA and/or EM concentrations for 24 hours. For total protein extraction, briefly, each sample media was collected, and wells were washed with HMS, and the wash was combined with its respective media collection. Cells were then detached using Accutase solution and again collected in its respective sample media and another HMS well wash and collection was performed. All cell solutions were centrifuged, washed with ice-cold PBS, and centrifuged again. Cell pellets were lysed in 250 μL of ice-cold 1× lysis buffer with protease and phosphatase inhibitor cocktails and incubated for 10 minutes on ice. Lysates were clarified with a centrifugation (14,000 rpm) for 10 minutes at 4° C. Cell lysates were quantified using Bio-Rad DC Protein Assay (Bio-Rad Cat. #5000116).
(§5) For all western blots, an equal amount of protein (3-5 μg) was loaded into SDS-polyacrylamide gels (Mini-Protean TGX Precast Gel; Bio-Rad, e.g. 7.5%, Cat. #4561024; 10%, Cat. #4561035; 12%, Cat. #4561045; or 4-15%, Cat. #4561085). Proteins were separated at 215V for at least 30 minutes in 1× Tris/Glycine/SDS buffer (Bio-Rad Cat. #1610772) and transferred to PVDF membranes using a Trans-Blot Turbo (Bio-Rad Cat. #1704155) for 7 minutes in transfer buffer (Trans-Blot Turbo Transfer Kit, Bio-Rad Cat. #1704273). Blots were blocked at room temperature for 1 hour with 5% non-fat dry milk in tris-buffered saline with Tween 20 (TBST; 15 mM Tris-HCl, pH 7.5, 200mMNaCl and 0.1% Tween 20). Membranes were incubated with primary antibodies at 4° C. overnight and at room temperature for 1 hour the next day; all primary antibodies were diluted following manufacturer's specifications in TBST with either 5% BSA or 5% non-fat dry milk. Membranes were washed in TBST for 5 minutes, three times, and incubated with HRP-conjugated secondary antibodies diluted 1:5000 in TBST with 5% non-fat dry milk at room temperature for 1 hour (anti-rabbit IgG, Bio-Rad Cat. #1706515; or anti-mouse IgG, Bio-Rad Cat. #1706516). Membranes were then washed in TBST for 10 minutes, three times, and target proteins were identified using Clarity Western ECL Substrate (Bio-Rad Cat. #1705061) on autoradiography film (GenHunter Cat. #B581, Nashville, Tenn., USA). Other assay types, such as Luminex multiplexed immunoassays, ICC, IHC, flow cytometry, etc. can be used readily.

Experiment [1] deals with panel of cell lines that included NSCLC, HNSCC, melanoma, and CRC. Briefly: WST8 in vitro sensitivity to MTAs with and without EM. Here is the method: as §1
We used a panel of cell lines that included NSCLC, HNSCC, melanoma, and CRC. These cell lines are a good model system harboring similar (epi)genetic changes found in patients' tumors. We used the WST8 assay to determine the in vitro sensitivity to various MTAs with and without EM1.

In the next experiment the test system is H2170. Briefly: WST-8 cell viability assay. The following applies: in combination with GSK-458, 72 hours. Here is the method:
as §1, §2, §3

The test system of another experiment is A-253. Briefly: WST-8 cell viability assay. The following applies: in combination with spermidine, 72 hours. How it is done:
as §1, §2, §3

Another experiment relates to Ca9-22. Briefly: WST-8 cell viability assay. As to conditions: in combination with osimertinib, 72 hours. Here is the method:
as §1, §2, §3

The next experiment has as its system HPAF-II cells. Kind of experiment: Western blot of protein biomarkers. The following applies: trametinib (100 nM)+IL-17 (10 ng/mL), 24 hours. How it is done:
as §4, §5

Another experiment relates to Ca9-22 cells. Kind of experiment: Western blot of protein biomarkers. As to conditions: osimertinib (100 nM)+IL-17 (10 ng/mL). How it is done:
as §4, §5

Another experiment has as its system Calu-6 cells. Kind of experiment: Western blot of protein biomarkers. The following applies: GSK-458 (100 nM)+TNF-β (50 ng/mL), 24 hours. How it is done: as §4, §5
Setting [2] is: in combination with GSK-458, 72 hours.
[3] abbreviates: in combination with trametinib, 72 hours.
Setting [4] is: 24 hours, compared to either MTA or EM alone.
[5] abbreviates: compared to either therapy alone.

As for “interferon-gamma [EM1, enhancer molecule, cytokine purchased from Sigma]”, the “anti-cancer/growth enhancement (WST-8 cell viability)” value in the experiment on HPAF-II (setting [2]) is “moderate-to-strong anti-cancer/growth enhancement”; in the experiment with HPAF-II (setting [3]), “moderate-to-strong anti-cancer/growth enhancement”; in the experiment on BICR-16, “moderate-to-strong anti-cancer/growth enhancement”; in the experiment with HTB-38 (setting [2]), “moderate-to-strong anti-cancer/growth enhancement”; in the experiment on HTB-38 (in combination with dabrafenib, 72 hours), “moderate-to-strong anti-cancer/growth enhancement”; in the experiment on HTB-38 (setting [3]), “moderate-to-strong anti-cancer/growth enhancement”. The “anti-cancer/growth enhancement (WST-8 cell viability)” value was “moderate-to-strong anti-cancer/growth enhancement” in the experiment on Calu-6 (in combination with GSK-795, 72 hours); “moderate-to-strong anti-cancer/growth enhancement” with CAL27; “moderate-to-strong anti-cancer/growth enhancement” with OE21; “moderate-to-strong anti-cancer/growth enhancement” in the experiment with BxPC-3. The “p-AKT (Ser473) expression” value in the experiment on CAL27 cells (setting [4]) is given as “strong reduction in p-AKT (Ser473) expression”. In the experiment with CAL27 cells (24 hours, compared to either alone), the “LC3II over LC3I expression” value is listed as “marked increase in LC3II over LC3I expression”. In addition, the p62 expression entry with CAL27 cells (setting [5]) is “reduced p62 expression”. Besides, the “response enhancement (in vitro sensitivity to various MTAs with and without EM, WST8)” value in [1] was “no, minimal and strong response enhancement”.
Regarding interleukin 17 [EM5], the “anti-cancer/growth enhancement (WST-8 cell viability)” value with HPAF-II (setting [3]), in the experiment on H2170, in the experiment on A-253, in the experiment with Ca9-22 and with Calu-6 (setting [3]) was “moderate-to-strong anti-cancer/growth enhancement” throughout. Further, in the experiment with HPAF-II cells (compared to MTA and EM alone), the PARP cleavage entry is “very strong PARP cleavage”. Further, the “p-AKT (Ser473) expression” value in the experiment on HPAF-II cells (compared to either MTA or EM alone) and in the experiment on Ca9-22 cells (setting [4]) was “strong reduction in p-AKT (Ser473) expression” throughout. Further, in the experiment on HPAF-II cells (setting [5]), the “Ki67 degradation and/or fragmentation pattern” value was “marked increase in the distinct degradation and/or fragmentation pattern of Ki67”. Also, the Ki67 expression result in the experiment with Ca9-22 cells (compared to both MTA and EM alone) is given as “enhanced reduction in Ki67 expression”.

B1: tumor necrosis factor-beta (protein, UniProt P01374 35-205, looked up)
Lymphotoxin-alpha: LPGVGLTPSAAQTARQHPKMHLAHSTLKPAAHLIGDPSKQNSLLWRANTDRAFLQDGFSLSNNSLLVPTSGIYFVYSQVVFSGKAYSPKATSSPLYLAHEVQLFSSQYPFHVPLLSSQKMVYPGLQEPWLHSMYHGAAFQLTQGDQLSTHTDGIPHLVLSPSTVFFGAFAL
notes: enhancer molecule, cytokine purchased from Sigma
Take B1: in the experiment on Ca9-22, the “anti-cancer/growth enhancement (WST-8 cell viability)” value is reported as “anti-cancer/growth enhancement”. Further, the PARP cleavage entry in the experiment on Calu-6 cells (compared to MTA and EM alone) is reported as “very strong PARP cleavage”. Also, the “Ki67 degradation and/or fragmentation pattern” value in the experiment on Calu-6 cells (setting [5]) is “marked increase in the distinct degradation and/or fragmentation pattern of Ki67”.

Values taken from patent US20220339257A1, “METHODS TO INCREASE THE SENSITIVITY AND REVERSING THE RESISTANCE TO DRUGS” (Biomarker Strategies, LLC, priority 2019, published 2022).
